Data as given in ChEMBL document CHEMBL1147380, “Studies on the acetogenins of Formosan annonaceous plants. II. Cytotoxic acetogenins from Annona reticulata” (1993).
In brackets after ≈: the same amount, converted by molar mass.

Assays:
Assay type in all cases: functional
HT-29 = test: Cytotoxicity against human HT-29 cells; conditions: for EC50: Homo sapiens, HT-29, read-out: ED50 (the source's name)
P388 = test: Cytotoxicity against mouse P388 cells; conditions: for EC50: Mus musculus, P388, read-out: ED50 (the source's name)
A549 = test: Cytotoxicity against human A549 cells; conditions: for EC50: Homo sapiens, A549, read-out: ED50 (the source's name)
KB = test: Cytotoxicity against human KB cells; conditions: for EC50: Homo sapiens, KB, read-out: ED50 (the source's name)
MCF7 = test: Cytotoxicity against human MCF7 cells; conditions: for EC50: Homo sapiens, MCF7, read-out: ED50 (the source's name)

Structure (SMILES) | EC50 (HT-29) [mg/L] | EC50 (P388) [mg/L] | EC50 (A549) [mg/L] | EC50 (KB) [mg/L] | further results
CCCCCCCCCCCC[C@H](O)[C@@H]1CC[C@@H]([C@@H](O)CCCCC(O)CCCCCC2CC(CC(C)=O)C(=O)O2)O1 (some centres not stated) [ISOANNONACIN] | 0.002 (≈ 0.00335 µM) | 3 (≈ 5.03 µM) | 0.02 (≈ 0.0335 µM) | – | –
CCCCCCCCCCCC[C@H](O)[C@@H]1CC[C@@H]([C@@H](O)CCCCCC(O)CCCCC2CC(CC(C)=O)C(=O)O2)O1 (some centres not stated) [ISOANNORETICUIN] | 3.06 (≈ 5.13 µM) | 3.6 (≈ 6.03 µM) | 0.4 (≈ 0.67 µM) | 6.96 (≈ 11.7 µM) | –
CCCCCCCCCCCC[C@@H](O)[C@H]1CC[C@H]([C@H](O)CCCCC(=O)CCCCC[C@@H](O)CC2=C[C@H](C)OC2=O)O1 [ANNONACINONE] | 1 (≈ 1.68 µM) | – | 0.1 (≈ 0.168 µM) | 0.01 (≈ 0.0168 µM) | ED50 (P388): 1 ×10⁻⁶ ug/ml
CCCCCCCCCC[C@@H](O)[C@@H]1CC[C@@H]([C@@H]2CC[C@@H]([C@H](O)CCCCCCCCCC(O)CC3=CC(C)OC3=O)O2)O1 (stereo in doubt; 13) [BULLATACIN] | – | – | – | – | ED50 (MCF7): <1 ×10⁻⁵ ug/ml; ED50 (HT-29): <1 ×10⁻³ ug/ml; ED50 (A549): <1 ×10⁻⁵ ug/ml
CCCCCCCCCCCC[C@@H](O)[C@H]1CC[C@H]([C@H](O)CCCC[C@H](O)CCCCC[C@@H](O)CC2=CC(C)OC2=O)O1 (some centres not stated) [ANNONACIN] | 3 (≈ 5.03 µM) | – | 0.001 (≈ 0.00168 µM) | – | ED50 (P388): 1 ×10⁻⁵ ug/ml; ED50 (KB): 1 ×10⁻⁴ ug/ml
CCCCCCCCCCCC[C@@H](O)[C@H]1CC[C@H]([C@H](O)CCCCCCCCCCCCC2=C[C@H](C)OC2=O)O1 [REL-SOLAMIN] | – | 0.04 (≈ 0.0708 µM) | – | 0.3 (≈ 0.531 µM) | –
CCCCCCCCCCCC[C@H](O)[C@@H]1CC[C@@H]([C@@H](O)CCCCCC(=O)CCCCC(O)CC2=CC(C)OC2=O)O1 (some centres not stated) | 1.32 (≈ 2.22 µM) | 0.2 (≈ 0.336 µM) | 0.01 (≈ 0.0168 µM) | 4.66 (≈ 7.83 µM) | –
CCCCCCCCCC[C@@H](O)[C@@H]1CC[C@@H]([C@@H]2CC[C@@H]([C@H](O)CCCCCCCCCC(O)CC3=CC(C)OC3=O)O2)O1 (stereo in doubt; 7) [BULLATACIN] | – | – | 0.001 (≈ 0.00164 µM) | 10 (≈ 16.4 µM) | –
CCCCCCCCCCCC[C@H](O)[C@@H]1CC[C@@H]([C@@H](O)CC(O)CCCCC(O)CCCC(O)CC2=CC(C)OC2=O)O1 (some centres not stated) [ANNOMONICIN] | – | 0.24 (≈ 0.392 µM) | – | 2.29 (≈ 3.74 µM) | –
CCCCCCCCCCCC[C@H](O)[C@@H]1CC[C@@H]([C@@H](O)CCCCCC(=O)CCCCC2CC(CC(C)=O)C(=O)O2)O1 (some centres not stated) [SQUAMONE] | – | 5.6 (≈ 9.41 µM) | 1.34 (≈ 2.25 µM) | 1.5 (≈ 2.52 µM) | EC50 (MCF7): 2.14 mg/L (≈ 3.6 µM)
CCCCCCCCCCCC[C@H](O)[C@@H]1CC[C@@H]([C@@H](O)CCCCCC(O)CCCCC(O)CC2=CC(C)OC2=O)O1 (some centres not stated) [ANNORETICUIN] | 2.28 (≈ 3.82 µM) | 1 (≈ 1.68 µM) | 0.4 (≈ 0.67 µM) | 3.37 (≈ 5.65 µM) | –
CCCCCCCCCCCC[C@H](O)[C@@H]1CC[C@@H]([C@@H](O)CCCCCCCCCCCCCCC2=CC(C)OC2=O)O1 (some centres not stated) [RETICULATACIN] | 4.66 (≈ 7.86 µM) | – | 3.49 (≈ 5.89 µM) | – | EC50 (MCF7): 2.91 mg/L (≈ 4.91 µM)
CCCCCCCCCCCC[C@H](O)[C@@H]1CC[C@@H]([C@@H](O)CCCCC(=O)CCCCCC2CC(CC(C)=O)C(=O)O2)O1 (some centres not stated) [ISOANNONACINONE] | 0.009 (≈ 0.0151 µM) | 0.5 (≈ 0.841 µM) | 0.07 (≈ 0.118 µM) | – | –
